The text below walks through data of US12685735B2 (Foghorn Therapeutics Inc., priority 2020, dated 2026).

In one assay the target is BRM (Homo sapiens, UniProt P51531). As to the kind of experiment: ATPase catalytic activity assay of BRM (ADP-Glo). To be noted: for IC50: read-out: BRM IC50 (μM)*. Type of assay: biochemical. The procedure, abridged:
(§1)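 Measurement is luminescence, reflecting ADP produced by ATPase turnover. The two-step ADP-Glo detection consists of ATP depletion for 40 min and ADP-to-ATP conversion with luciferase for 60 min, both at room temperature.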

The target of a further assay is BRG-1 (Homo sapiens, UniProt P51532). As to the kind of experiment: ATPase catalytic activity assay of BRG-1 (ADP-Glo). Type of assay: biochemical. To be noted: ATPase catalytic activity, ADP-Glo; for IC50: read-out: BRG1 IC50 (μM)*; for Emax: read-out: BRG1 Max % Inhibition. The procedure, abridged: as §1
BRG-1, sequence (P51532 whole entry): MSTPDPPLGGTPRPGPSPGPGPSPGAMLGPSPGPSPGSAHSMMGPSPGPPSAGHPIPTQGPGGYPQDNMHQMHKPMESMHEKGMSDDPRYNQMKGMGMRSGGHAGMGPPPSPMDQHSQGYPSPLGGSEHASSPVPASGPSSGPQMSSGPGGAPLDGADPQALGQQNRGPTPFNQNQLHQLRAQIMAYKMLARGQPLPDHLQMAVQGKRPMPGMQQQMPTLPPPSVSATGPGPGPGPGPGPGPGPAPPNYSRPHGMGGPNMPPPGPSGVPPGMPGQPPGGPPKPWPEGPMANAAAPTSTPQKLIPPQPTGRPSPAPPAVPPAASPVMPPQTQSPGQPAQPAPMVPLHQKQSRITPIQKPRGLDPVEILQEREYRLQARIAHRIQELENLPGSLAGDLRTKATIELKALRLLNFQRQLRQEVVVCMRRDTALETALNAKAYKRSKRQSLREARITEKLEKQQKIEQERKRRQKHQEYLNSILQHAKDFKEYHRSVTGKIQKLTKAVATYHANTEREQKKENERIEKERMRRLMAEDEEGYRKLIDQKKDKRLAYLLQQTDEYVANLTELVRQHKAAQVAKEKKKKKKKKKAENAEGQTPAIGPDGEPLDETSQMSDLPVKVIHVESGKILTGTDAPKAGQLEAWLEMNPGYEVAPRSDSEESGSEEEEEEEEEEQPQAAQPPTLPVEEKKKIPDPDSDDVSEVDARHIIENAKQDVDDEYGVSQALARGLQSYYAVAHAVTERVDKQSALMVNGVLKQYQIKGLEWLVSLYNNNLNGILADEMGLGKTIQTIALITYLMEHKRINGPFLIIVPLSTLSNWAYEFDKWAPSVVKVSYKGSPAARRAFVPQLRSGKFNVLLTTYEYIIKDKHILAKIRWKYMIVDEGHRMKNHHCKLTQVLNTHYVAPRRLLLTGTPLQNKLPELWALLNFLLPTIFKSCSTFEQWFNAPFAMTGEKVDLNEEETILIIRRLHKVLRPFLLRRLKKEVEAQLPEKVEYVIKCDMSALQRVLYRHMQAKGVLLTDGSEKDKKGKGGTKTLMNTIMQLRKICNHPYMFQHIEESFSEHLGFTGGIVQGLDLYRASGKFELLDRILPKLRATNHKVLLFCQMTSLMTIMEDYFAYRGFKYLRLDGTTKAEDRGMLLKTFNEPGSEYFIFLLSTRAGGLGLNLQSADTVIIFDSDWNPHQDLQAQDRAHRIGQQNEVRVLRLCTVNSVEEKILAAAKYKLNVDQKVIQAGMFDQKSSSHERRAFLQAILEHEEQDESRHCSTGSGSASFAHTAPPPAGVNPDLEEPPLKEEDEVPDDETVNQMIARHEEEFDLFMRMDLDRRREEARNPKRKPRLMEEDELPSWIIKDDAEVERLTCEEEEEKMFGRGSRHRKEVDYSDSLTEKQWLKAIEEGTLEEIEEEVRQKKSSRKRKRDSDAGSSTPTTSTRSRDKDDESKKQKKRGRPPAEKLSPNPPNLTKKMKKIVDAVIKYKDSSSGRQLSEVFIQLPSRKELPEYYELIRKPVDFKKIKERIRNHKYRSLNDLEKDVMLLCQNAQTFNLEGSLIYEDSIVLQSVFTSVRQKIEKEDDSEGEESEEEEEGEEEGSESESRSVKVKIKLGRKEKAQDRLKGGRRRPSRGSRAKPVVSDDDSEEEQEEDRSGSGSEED

BRM, sequence (P51531 whole entry): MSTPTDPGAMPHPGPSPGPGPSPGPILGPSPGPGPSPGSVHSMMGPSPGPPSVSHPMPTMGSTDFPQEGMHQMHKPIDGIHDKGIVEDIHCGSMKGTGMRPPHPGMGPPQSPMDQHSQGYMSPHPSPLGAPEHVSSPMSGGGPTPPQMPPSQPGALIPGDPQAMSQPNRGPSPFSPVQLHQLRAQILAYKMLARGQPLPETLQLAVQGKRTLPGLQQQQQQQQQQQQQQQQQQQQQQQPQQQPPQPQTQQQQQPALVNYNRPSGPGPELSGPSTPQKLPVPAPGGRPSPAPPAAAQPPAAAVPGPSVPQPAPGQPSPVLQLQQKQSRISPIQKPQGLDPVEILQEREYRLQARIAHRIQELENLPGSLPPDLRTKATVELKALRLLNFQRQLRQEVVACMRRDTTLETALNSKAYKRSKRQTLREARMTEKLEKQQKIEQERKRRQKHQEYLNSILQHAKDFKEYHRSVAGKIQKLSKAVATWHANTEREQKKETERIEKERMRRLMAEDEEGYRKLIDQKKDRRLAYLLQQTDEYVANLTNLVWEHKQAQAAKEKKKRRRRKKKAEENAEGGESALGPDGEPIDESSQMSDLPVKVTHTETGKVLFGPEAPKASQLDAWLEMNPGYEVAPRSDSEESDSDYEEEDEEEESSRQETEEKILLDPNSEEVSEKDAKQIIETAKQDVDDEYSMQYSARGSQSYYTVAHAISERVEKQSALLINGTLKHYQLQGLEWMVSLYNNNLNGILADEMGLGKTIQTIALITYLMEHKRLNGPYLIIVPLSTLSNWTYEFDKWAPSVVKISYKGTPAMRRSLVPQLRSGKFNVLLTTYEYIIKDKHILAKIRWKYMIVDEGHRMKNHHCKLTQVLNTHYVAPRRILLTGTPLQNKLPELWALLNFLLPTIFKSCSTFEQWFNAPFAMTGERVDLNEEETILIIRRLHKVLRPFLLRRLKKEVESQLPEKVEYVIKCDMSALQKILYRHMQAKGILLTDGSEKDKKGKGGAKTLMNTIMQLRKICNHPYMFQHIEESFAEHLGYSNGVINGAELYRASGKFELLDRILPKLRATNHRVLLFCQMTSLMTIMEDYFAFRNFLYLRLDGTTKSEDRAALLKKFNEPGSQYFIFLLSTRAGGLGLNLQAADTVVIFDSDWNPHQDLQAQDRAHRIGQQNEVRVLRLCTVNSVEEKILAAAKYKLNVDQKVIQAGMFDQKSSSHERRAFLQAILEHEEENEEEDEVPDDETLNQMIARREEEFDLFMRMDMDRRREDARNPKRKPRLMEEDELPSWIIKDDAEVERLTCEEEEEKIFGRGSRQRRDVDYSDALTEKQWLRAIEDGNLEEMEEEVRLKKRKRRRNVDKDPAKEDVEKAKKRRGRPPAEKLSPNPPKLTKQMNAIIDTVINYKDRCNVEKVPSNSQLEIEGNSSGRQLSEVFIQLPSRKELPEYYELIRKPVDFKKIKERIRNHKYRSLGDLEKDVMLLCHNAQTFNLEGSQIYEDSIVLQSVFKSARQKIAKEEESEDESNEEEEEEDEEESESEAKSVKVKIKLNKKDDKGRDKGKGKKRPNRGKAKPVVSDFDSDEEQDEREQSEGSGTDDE

For the molecule `C[C@@]1(C#N)COCc2ccc(C(=O)NCC(=O)Nc3nc(-c4cccc([C@H]5CCO5)c4)cs3)cc21` [Compound 359, (R)-4-cyano-4-methyl-N-(2-((4-(3-((trans)-oxetan-2-yl)phenyl)thiazol-2-yl)amino)-2-oxoethyl)isochromane-6-carboxamide], on BRM, the “BRM Max % Inhibition” value is more than 95% and the IC50 was less than 0.1 µM. Also, on BRG-1, the IC50 fell in the range of 0.1 to 1 µM and the Emax was more than 95%.

Take `C[C@@H]1CN(c2cccc(-c3csc(NC(=O)CNC(=O)c4ccc5c(c4)C4(CCO5)CCO4)n3)n2)C[C@H](C)O1` (some centres unmarked) [Compound 360]: the IC50 on BRM is less than 0.1 µM. Also, at BRG-1, the IC50 was in the range of 1 to 5 µM and the Emax was more than 95%.

For the molecule `O=C(CNC(=O)c1cccc(C2(C(F)F)COC2)c1)Nc1nc(-c2cccc(N3CCC3)c2)cs1` [Compound 362, N-(2-((4-(3-(azetidin-1-yl)phenyl)thiazol-2-yl)amino)-2-oxoethyl)-3-(3-(difluoromethyl)oxetan-3-yl)benzamide], at BRM, the “BRM Max % Inhibition” value was more than 90% and the IC50 is less than 0.1 µM. Also, at BRG-1, the IC50 is 0.1 to 1 µM and the Emax was more than 90%.

For `C[C@@]1(C#N)COCc2ccc(C(=O)NCC(=O)Nc3nc(-c4cc(F)cc(N5CCC5)c4)cs3)cc21` [Compound 364, (R)-N-(2-((4-(3-(azetidin-1-yl)-5-fluorophenyl)thiazol-2-yl)amino)-2-oxoethyl)-4-cyano-4-methylisochromane-6-carboxamide], on BRM, the “BRM Max % Inhibition” value is on record as more than 95% and the half-inhibitory concentration (IC50) was less than 0.1 µM. For the same molecule, on BRG-1, the IC50 was less than 0.1 µM and the Emax is more than 95%.

On to `C[C@@]1(C#N)COCc2ccc(C(=O)NCC(=O)Nc3nc(-c4cccc(C5CCO5)c4)cs3)cc21` (some centres unmarked) [Compound 365], for which, on BRM, the “BRM Max % Inhibition” value is more than 95% and the IC50 is less than 0.1 µM. Further, at BRG-1, the “BRG1 Max % Inhibition” value is given as more than 95% and the IC50 was 0.1 to 1 µM.

For the molecule `C[C@@H]1CN(c2cccc(-c3csc(NC(=O)CNC(=O)c4ccc5c(c4)CCOC5)n3)n2)C[C@H](C)O1` [Compound 366, N-(2-((4-(6-((cis)-2,6-dimethylmorpholino)pyridin-2-yl)thiazol-2-yl)amino)-2-oxoethyl)isochromane-6-carboxamide], at BRM, the “BRM Max % Inhibition” value is listed as more than 85% and the IC50 was less than 0.1 µM. Also, on BRG-1, the half-maximal inhibitory concentration (IC50) fell in the range of 0.1 to 1 µM and the Emax is more than 85%.

Take `CCS1(=O)=NCc2ccc(C(=O)NCC(=O)Nc3nc(-c4cccc(N5C[C@@H](C)O[C@@H](C)C5)c4)cs3)cc21` (stereo partly drawn) [Compound 367, N-(2-((4-(3-((cis)-2,6-dimethylmorpholino)phenyl)thiazol-2-yl)amino)-2-oxoethyl)-1-ethyl-3H-1I4-benzo[d]isothiazole-6-carboxamide 1-oxide]: on BRM, the “BRM Max % Inhibition” value is on record as more than 85% and the IC50 was 0.1 to 1 µM. On BRG-1, the IC50 fell in the range of 1 to 5 µM and the Emax is more than 85%.

Consider `C[C@@H]1CN(c2cccc(-c3csc(NC(=O)CNC(=O)c4ccc5c(c4)[C@@](C)(C#N)CN5C)n3)c2)C[C@H](C)O1` [Compound 368, (R)-3-cyano-N-(2-((4-(3-((cis)-2,6-dimethylmorpholino)phenyl)thiazol-2-yl)amino)-2-oxoethyl)-1,3-dimethylindoline-5-carboxamide], for which, at BRM, the “BRM Max % Inhibition” value is recorded as more than 85% and the IC50 was in the range of 0.1 to 1 µM. Besides, at BRG-1, the IC50 is 1 to 5 µM and the Emax is more than 85%.

On to `C[C@@H]1CN(c2cccc(-c3csc(NC(=O)CNC(=O)c4ccc5c(c4)[C@](C)(C#N)CN5C)n3)c2)C[C@H](C)O1` [Compound 369, (S)-3-cyano-N-(2-((4-(3-((cis)-2,6-dimethylmorpholino)phenyl)thiazol-2-yl)amino)-2-oxoethyl)-1,3-dimethylindoline-5-carboxamide], for which, on BRM, the “BRM Max % Inhibition” value was more than 95% and the IC50 was less than 0.1 µM. Moreover, on BRG-1, the IC50 is less than 0.1 µM and the Emax was more than 95%.

As to `C[C@@H]1CN(c2cccc(-c3csc(NC(=O)CNC(=O)c4ccc5c(c4)CCCO5)n3)n2)C[C@H](C)O1` [Compound 370, N-(2-((4-(6-((cis)-2,6-dimethylmorpholino)pyridin-2-yl)thiazol-2-yl)amino)-2-oxoethyl)chromane-6-carboxamide], at BRM, the “BRM Max % Inhibition” value is recorded as more than 65% and the IC50 was 0.1 to 1 µM. Moreover, on BRG-1, the IC50 was more than 5 µM and the Emax was more than 65%.

Take `C[C@@]1(C#N)COCc2ccc(C(=O)NCC(=O)Nc3nc(-c4cccc(C5CCO5)c4)cs3)cc21` (stereo partly drawn) [Compound 371, (R)-4-cyano-4-methyl-N-(2-((4-(3-(oxetan-2-yl)phenyl)thiazol-2-yl)amino)-2-oxoethyl)isochromane-6-carboxamide]: at BRM, the “BRM Max % Inhibition” value is reported as more than 95% and the IC50 was less than 0.1 µM. Also, on BRG-1, the IC50 was in the range of 0.1 to 1 µM and the Emax is more than 95%.

As for `C[C@@H]1CN(c2cccc(-c3csc(NC(=O)CNC(=O)c4ccc5c(c4)C(C#N)(CO)COC5)n3)c2)C[C@H](C)O1` (stereo partly drawn) [Compound 374, 4-cyano-N-(2-((4-(3-((cis)-2,6-dimethylmorpholino)phenyl)thiazol-2-yl)amino)-2-oxoethyl)-4-(hydroxymethyl)isochromane-6-carboxamide], at BRM, the “BRM Max % Inhibition” value was more than 95% and the IC50 is less than 0.1 µM. Besides, on BRG-1, the IC50 fell in the range of 0.1 to 1 µM and the Emax was more than 95%.

Regarding `C[C@@H]1CN(c2cccc(-c3csc(NC(=O)CNC(=O)c4ccc5c(c4)C4(CCO4)COC5)n3)n2)C[C@H](C)O1` (stereo partly drawn) [Compound 376, N-(2-((4-(6-((cis)-2,6-dimethylmorpholino)pyridin-2-yl)thiazol-2-yl)amino)-2-oxoethyl)spiro[isochromane-4,2′-oxetane]-6-carboxamide], at BRM, the “BRM Max % Inhibition” value was more than 95% and the IC50 was less than 0.1 µM. Also, on BRG-1, the IC50 was 0.1 to 1 µM and the Emax was more than 95%.

As to `COc1cc(F)cc(-c2csc(NC(=O)CNC(=O)c3ccc4c(c3)[C@](C)(C#N)COC4)n2)c1` [Compound 377, (R)-4-cyano-N-(2-((4-(3-fluoro-5-methoxyphenyl)thiazol-2-yl)amino)-2-oxoethyl)-4-methylisochromane-6-carboxamide], at BRM, the “BRM Max % Inhibition” value is reported as more than 95% and the IC50 was less than 0.1 µM. Moreover, at BRG-1, the IC50 was less than 0.1 µM and the Emax is more than 95%.

As to `CC(=O)N1CC(c2cccc(-c3csc(NC(=O)CNC(=O)c4ccc5c(c4)[C@](C)(C#N)COC5)n3)c2)C1` [Compound 379, (R)-N-(2-((4-(3-(1-acetylazetidin-3-yl)phenyl)thiazol-2-yl)amino)-2-oxoethyl)-4-cyano-4-methylisochromane-6-carboxamide], at BRM, the “BRM Max % Inhibition” value is given as more than 95% and the IC50 was less than 0.1 µM. Moreover, at BRG-1, the IC50 lay in the range of 0.1 to 1 µM and the Emax is more than 95%.

As to `C[C@@H]1CN(c2cccc(-c3csc(NC(=O)CNC(=O)c4ccc5c(c4)C4(CCO5)COC4)n3)n2)C[C@H](C)O1` [Compound 381, N-(2-((4-(6-((cis)-2,6-dimethylmorpholino)pyridin-2-yl)thiazol-2-yl)amino)-2-oxoethyl)spiro[chromane-4,3′-oxetane]-6-carboxamide], on BRM, the “BRM Max % Inhibition” value is on record as more than 80% and the IC50 fell in the range of 0.1 to 1 µM. Moreover, at BRG-1, the IC50 was more than 5 µM and the Emax is more than 80%.

Regarding `Cn1ccc2ccc(-c3csc(NC(=O)CNC(=O)c4ccc5c(c4)C4(CCO5)COC4)n3)cc2c1=O` [Compound 382, N-(2-((4-(2-methyl-1-oxo-1,2-dihydroisoquinolin-7-yl)thiazol-2-yl)amino)-2-oxoethyl)spiro[chromane-4,3′-oxetane]-6-carboxamide], at BRM, the “BRM Max % Inhibition” value was more than 50% and the IC50 was 0.1 to 1 µM. Besides, on BRG-1, the IC50 was more than 5 µM and the Emax was more than 50%.

Turning to `C[C@@H]1CN(c2cccc(-c3csc(NC(=O)CNC(=O)c4cc(C(C)(C)C)ncc4F)n3)c2)C[C@H](C)O1` [Compound 383, 2-(tert-butyl)-N-(2-((4-(3-((cis)-2,6-dimethylmorpholino)phenyl)thiazol-2-yl)amino)-2-oxoethyl)-5-fluoroisonicotinamide], at BRM, the “BRM Max % Inhibition” value is reported as more than 85% and the IC50 is 0.1 to 1 µM. For the same molecule, at BRG-1, the IC50 was more than 5 µM and the Emax is more than 85%.

Regarding `C[C@@H]1CN(c2cccc(-c3csc(NC(=O)CNC(=O)c4ccc5c(c4)C(C)(C#N)OCC5)n3)n2)C[C@H](C)O1` (stereo partly drawn) [Compound 384, 1-cyano-N-(2-((4-(6-((cis)-2,6-dimethylmorpholino)pyridin-2-yl)thiazol-2-yl)amino)-2-oxoethyl)-1-methylisochromane-7-carboxamide], on BRM, the “BRM Max % Inhibition” value is given as more than 90% and the IC50 was 0.1 to 1 µM. Further, on BRG-1, the IC50 was 1 to 5 µM and the Emax was more than 90%.

Turning to `C[C@@H]1CN(c2cccc(-c3csc(NC(=O)CNC(=O)c4ccc5c(c4)C(F)(F)COC5)n3)n2)C[C@H](C)O1` [Compound 385, N-(2-((4-(6-((cis)-2,6-dimethylmorpholino)pyridin-2-yl)thiazol-2-yl)amino)-2-oxoethyl)-4,4-difluoroisochromane-6-carboxamide], at BRM, the “BRM Max % Inhibition” value is listed as more than 95% and the IC50 is less than 0.1 µM. For the same molecule, on BRG-1, the IC50 lay within 0.1 to 1 µM and the Emax is more than 95%.

With `C[C@@]1(C#N)COCc2ccc(C(=O)NCC(=O)Nc3nc(-c4cccc([C@@H]5CC5(F)F)n4)cs3)cc21` [Compound 386, (R)-4-cyano-N-(2-((4-(6-((S)-2,2-difluorocyclopropyl)pyridin-2-yl)thiazol-2-yl)amino)-2-oxoethyl)-4-methylisochromane-6-carboxamide], at BRM, the “BRM Max % Inhibition” value was more than 95% and the IC50 was less than 0.1 µM. At BRG-1, the IC50 is 0.1 to 1 µM and the Emax was more than 95%.
